Legend:
Test in all cases: NCI SRB growth inhibition (single dose 10 µM / five-dose)
Type in all cases: cell-based, human
MALME-3 M = details: Homo sapiens; for inhibition at 10 µM: MALME-3 M (Melanoma), read-out: GI%
How it was run: (§1)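 TCA fixation ends the assay for adherent lines; unbound SRB is rinsed off five times with 1% acetic acid. Drug is added from a DMSO concentrate at 400× the maximum final concentration, made up to 2× in gentamicin-containing medium, then halved on addition to wells.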

HS 578 T = details: Homo sapiens; for inhibition at 10 µM: HS 578 T (Breast cancer), read-out: GI%
How it was run: as §1

SK-MEL-28 = details: Homo sapiens; for inhibition at 10 µM: SK-MEL-28 (Melanoma), read-out: GI%
How it was run: as §1

SK-MEL-5 = details: Homo sapiens; for inhibition at 10 µM: SK-MEL-5 (Melanoma), read-out: GI%
How it was run: as §1

TK-10 = details: Homo sapiens; for inhibition at 10 µM: TK-10 (Renal cancer), read-out: GI%
How it was run: as §1

CCRF-CEM = details: Homo sapiens; for inhibition at 10 µM: CCRF-CEM (Leukemia), read-out: GI%
How it was run: as §1

OVCAR-5 = details: Homo sapiens; for inhibition at 10 µM: OVCAR-5 (Ovarian cancer), read-out: GI%
How it was run: as §1

BT-549 = details: Homo sapiens; for inhibition at 10 µM: BT-549 (Breast cancer), read-out: GI%
How it was run: as §1

SR = details: Homo sapiens; for inhibition at 10 µM: SR (Leukemia), read-out: GI%
How it was run: as §1

M14 = details: Homo sapiens; for inhibition at 10 µM: M14 (Melanoma), read-out: GI%
How it was run: as §1

786–0 = details: Homo sapiens; for inhibition at 10 µM: 786–0 (Renal cancer), read-out: GI%
How it was run: as §1

SK-MEL-2 = details: Homo sapiens; for inhibition at 10 µM: SK-MEL-2 (Melanoma), read-out: GI%
How it was run: as §1

MOLT-4 = details: Homo sapiens; for inhibition at 10 µM: MOLT-4 (Leukemia), read-out: GI%
How it was run: as §1

EKVX = details: Homo sapiens; for inhibition at 10 µM: EKVX (Non-small cell lung cancer), read-out: GI%
How it was run: as §1

HT29 = details: Homo sapiens, HT-29; for inhibition at 10 µM: HT29 (Colon cancer), read-out: GI%
How it was run: as §1

MDA-MB-231/ATCC = details: Homo sapiens; for inhibition at 10 µM: MDA-MB-231/ATCC (Breast cancer), read-out: GI%
How it was run: as §1

NCI/ADR-RES = details: Homo sapiens; for inhibition at 10 µM: NCI/ADR-RES (Ovarian cancer), read-out: GI%
How it was run: as §1

SF-295 = details: Homo sapiens; for inhibition at 10 µM: SF-295 (CNS cancer), read-out: GI%
How it was run: as §1

CAKI-1 = details: Homo sapiens; for inhibition at 10 µM: CAKI-1 (Renal cancer), read-out: GI%
How it was run: as §1

HOP-92 = details: Homo sapiens; for inhibition at 10 µM: HOP-92 (Non-small cell lung cancer), read-out: GI%
How it was run: as §1

A549/ATCC = details: Homo sapiens; for inhibition at 10 µM: A549/ATCC (Non-small cell lung cancer), read-out: GI%
How it was run: as §1

HCC-2998 = details: Homo sapiens; for inhibition at 10 µM: HCC-2998 (Colon cancer), read-out: GI%
How it was run: as §1

RXF 393 = details: Homo sapiens; for inhibition at 10 µM: RXF 393 (Renal cancer), read-out: GI%
How it was run: as §1

ACHN = details: Homo sapiens; for inhibition at 10 µM: ACHN (Renal cancer), read-out: GI%
How it was run: as §1

NCI-H226 = details: Homo sapiens; for inhibition at 10 µM: NCI-H226 (Non-small cell lung cancer), read-out: GI%
How it was run: as §1

UACC-257 = details: Homo sapiens; for inhibition at 10 µM: UACC-257 (Melanoma), read-out: GI%
How it was run: as §1

With `O=C(NN=Cc1ccccc1O)c1ccc2[nH]c(-c3ccc(Cl)cc3)nc2c1` [8o, 2-(4-Chlorophenyl)-N'-(2-hydroxybenzylidene)-1H-benzo[d]imidazole-5-carbohydrazide] the inhibition at 10 µM (MALME-3 M) was > 100%, the GI50 (MALME-3 M; MALME-3 M, Melanoma, five-dose) was 1.03 µM and the inhibition at 10 µM (HS 578 T) was > 100%. The GI50 (HS 578 T; HS 578 T, Breast cancer, five-dose) was 0.26 µM, the inhibition at 10 µM (SK-MEL-28) was 78.2% and the GI50 (SK-MEL-28; SK-MEL-28, Melanoma, five-dose) was 1.85 µM. The inhibition at 10 µM (SK-MEL-5) was > 100%, the GI50 (SK-MEL-5; SK-MEL-5, Melanoma, five-dose) was 0.51 µM and the inhibition at 10 µM (TK-10) was 95%. The GI50 (TK-10; TK-10, Renal cancer, five-dose) was 5.08 µM, the inhibition at 10 µM (CCRF-CEM) was > 100% and the GI50 (CCRF-CEM; CCRF-CEM, Leukemia, five-dose) was > 38.8 µM. For the same compound, the inhibition at 10 µM (OVCAR-5) was 55.9%, the GI50 (OVCAR-5; OVCAR-5, Ovarian cancer, five-dose) was 2.12 µM and the inhibition at 10 µM (BT-549) was 60.6%. It also gave a GI50 (BT-549; BT-549, Breast cancer, five-dose) of 3.57 µM, an inhibition at 10 µM (SR) of 75.2% and a GI50 (SR; SR, Leukemia, five-dose) of 0.12 µM. The inhibition at 10 µM (M14) was 90.9%, the GI50 (M14; M14, Melanoma, five-dose) was 1.81 µM and the inhibition at 10 µM (786–0) was > 100%. For the same compound, the GI50 (786–0; 786–0, Renal cancer, five-dose) was 0.83 µM, the inhibition at 10 µM (SK-MEL-2) was > 100% and the GI50 (SK-MEL-2; SK-MEL-2, Melanoma, five-dose) was 4.6 µM. The inhibition at 10 µM (MOLT-4) was 60.8%, the GI50 (MOLT-4; MOLT-4, Leukemia, five-dose) was 0.28 µM and the inhibition at 10 µM (EKVX) was 67.2%. The GI50 (EKVX; EKVX, Non-small cell lung cancer, five-dose) was 9.31 µM, the inhibition at 10 µM (HT29) was > 100% and the GI50 (HT29; HT29, Colon cancer, five-dose) was 1.08 µM. The inhibition at 10 µM (MDA-MB-231/ATCC) was > 100%, the GI50 (MDA-MB-231/ATCC; MDA-MB-231/ATCC, Breast cancer, five-dose) was 1.41 µM and the inhibition at 10 µM (NCI/ADR-RES) was 56.4%. The GI50 (NCI/ADR-RES; NCI/ADR-RES, Ovarian cancer, five-dose) was 1.15 µM, the inhibition at 10 µM (SF-295) was > 100% and the GI50 (SF-295; SF-295, CNS cancer, five-dose) was 1.6 µM. For the same compound, the inhibition at 10 µM (CAKI-1) was > 100%, the GI50 (CAKI-1; CAKI-1, Renal cancer, five-dose) was 0.22 µM and the inhibition at 10 µM (HOP-92) was > 100%. For the same compound, the GI50 (HOP-92; HOP-92, Non-small cell lung cancer, five-dose) was > 38.8 µM, the inhibition at 10 µM (A549/ATCC) was 87% and the GI50 (A549/ATCC; A549/ATCC, Non-small cell lung cancer, five-dose) was 1.8 µM. For the same compound, the inhibition at 10 µM (HCC-2998) was 78%, the GI50 (HCC-2998; HCC-2998, Colon cancer, five-dose) was 1.38 µM and the inhibition at 10 µM (RXF 393) was > 100%. It also gave a GI50 (RXF 393; RXF 393, Renal cancer, five-dose) of 0.79 µM, an inhibition at 10 µM (ACHN) of 94.2% and a GI50 (ACHN; ACHN, Renal cancer, five-dose) of 0.81 µM. It also gave an inhibition at 10 µM (NCI-H226) of 88.6%, a GI50 (NCI-H226; NCI-H226, Non-small cell lung cancer, five-dose) of 4.33 µM and an inhibition at 10 µM (UACC-257) of 42.4%. The GI50 (UACC-257; UACC-257, Melanoma, five-dose) was 7.35 µM.

Compound `O=C(NN=Cc1cccc(O)c1)c1ccc2[nH]c(-c3ccc(Cl)cc3)nc2c1` [8p, 2-(4-Chlorophenyl)-N'-(3-hydroxybenzylidene)-1H-benzo[d]imidazole-5-carbohydrazide] has an inhibition at 10 µM (MALME-3 M) of 58.9%, an inhibition at 10 µM (HS 578 T) of 27.1% and an inhibition at 10 µM (SK-MEL-28) of 16%. For the same compound, the inhibition at 10 µM (SK-MEL-5) was 69.5%, the inhibition at 10 µM (TK-10) was < 5% and the inhibition at 10 µM (CCRF-CEM) was 71.9%. For the same compound, the inhibition at 10 µM (OVCAR-5) was < 5%, the inhibition at 10 µM (BT-549) was < 5% and the inhibition at 10 µM (SR) was 26.4%. For the same compound, the inhibition at 10 µM (M14) was 25.4%, the inhibition at 10 µM (786–0) was 22.2% and the inhibition at 10 µM (SK-MEL-2) was 24%. For the same compound, the inhibition at 10 µM (MOLT-4) was 68.6%, the inhibition at 10 µM (EKVX) was 7.59% and the inhibition at 10 µM (HT29) was 19.9%. For the same compound, the inhibition at 10 µM (MDA-MB-231/ATCC) was 45.2%, the inhibition at 10 µM (NCI/ADR-RES) was < 5% and the inhibition at 10 µM (SF-295) was 11.8%. For the same compound, the inhibition at 10 µM (CAKI-1) was < 5%, the inhibition at 10 µM (HOP-92) was 6.79% and the inhibition at 10 µM (A549/ATCC) was 7.53%. For the same compound, the inhibition at 10 µM (HCC-2998) was 15.9%, the inhibition at 10 µM (RXF 393) was 31.6% and the inhibition at 10 µM (ACHN) was < 5%. The inhibition at 10 µM (NCI-H226) was 30.1% and the inhibition at 10 µM (UACC-257) was < 5%.

Source: article PMC10893631, “Receptor-based pharmacophore modeling, molecular docking, synthesis and biological evaluation of novel VEGFR-2, FGFR-1, and BRAF multi-kinase inhibitors” (BMC Chemistry, 2024)
